Reference: PMC11149339, “Necessity for higher teicoplanin doses in older adults: a multicenter prospective observational study in China” (BMC Geriatrics, 2024)

Tests used:
Type in all cases: in vivo, human
[1] = Therapeutic drug monitoring of teicoplanin concentration after drug withdrawal, LC-MS/MS; details: for TDM Withdraw 8-14d (teicoplanin concentration): 8–14 days after last dose (withdrawal); for TDM Withdraw 8-14d (teicoplanin concentration) / TDM Withdraw 3d (teicoplanin concentration) / TDM Withdraw ≤ 7d (teicoplanin concentration) / TDM Withdraw ≥ 15d (teicoplanin concentration): median [IQR], LC-MS/MS; for TDM Withdraw 3d (teicoplanin concentration): 3 days after last dose (withdrawal); for TDM Withdraw ≤ 7d (teicoplanin concentration): ≤ 7 days after last dose (withdrawal); for TDM Withdraw ≥ 15d (teicoplanin concentration): ≥ 15 days after last dose (withdrawal); for patients with TDM 10–20 mg/L Withdraw ≥ 15d, N (%) / patients with TDM < 10 mg/L Withdraw ≥ 15d, N (%) / patients with TDM > 20 mg/L Withdraw ≥ 15d, N (%): ≥ 15 days after last dose
Description: Teicoplanin (Targocid, Sanofi, Dublin, Ireland) was administered intravenously for 30 min. The prescribed dose regimens were at the discretion of treating physicians, and the recommended regimens were not always followed.
Blood samples (5 mL) were collected from the elbow into ethylenediaminetetraacetic acid-containing Vacutainers® (Becton Dickinson, Milan, Italy) in the morning before teicoplanin administration and after drug withdrawal. Samples were promptly refrigerated and centrifuged at 2500 × g for 10 min before 2 mL of supernatant was preserved at -20 °C for subsequent analysis. Teicoplanin concentrations were determined using liquid chromatography-tandem mass spectrometry. The linear range of the method was 1.0–100.0 mg/L, and the lower limit of quantification was 1.0 mg/L. The relative standard deviation of intra- and inter-batch precision was ≤ 10%.
Teicoplanin concentrations were dynamically monitored. Concentrations at 3, ≤ 7, 8–14, and ≥ 15 days after the first dose and within 2 h of the next scheduled dose were recorded as TDM3d, TDM≤7d, TDM8-14d, and TDM≥15d, respectively. Concentrations at 3, ≤ 7, 8–14, and ≥ 15 days after the last teicoplanin dose (withdrawal) were recorded as TDMw3d, TDMw≤7d, TDMw8-14d, and TDMw≥15d. respectively (Fig. 1a). The Cmin target was ≥ 10 mg/L [6, 7, 23]; a concentration < 10 mg/L was considered suboptimal. Average TDM (TDMa) was defined as the mean Cmin after 3 days of treatment.

[2] = Nephrotoxicity (acute kidney injury) during teicoplanin treatment
Excerpt: Patients with renal impairment at baseline were excluded. Nephrotoxicity was defined as acute renal impairment indicated by a serum creatinine increase of > 50% from baseline.

[3] = Hepatotoxicity during teicoplanin treatment
Excerpt: Patients with abnormal liver function at baseline were excluded. Hepatotoxicity was defined as an increase in the alanine aminotransferase or aspartate aminotransferase concentration to more than three times the upper limit of the institution’s normal reference ranges.

[4] = Thrombocytopenia during teicoplanin treatment
Excerpt: Patients with platelet counts < 100 × 10^9/L at baseline were excluded. Thrombocytopenia was defined as a decrease in the platelet count of > 30% from baseline.

[5] = LR-A + MR-A (200 mg once daily, then 200 mg once daily)
[6] = LR-B + MR-A (400 mg once daily, then 200 mg once daily)
[7] = LR-C + MR-B (400 mg at 12-h intervals, then 400 mg once daily)
[8] = 8–14 days after last dose, LR-A + MR-A
[9] = 8–14 days after last dose, LR-B + MR-A
[10] = 8–14 days after last dose, LR-C + MR-B
[11] = LR-B + MR-B (400 mg once daily, then 400 mg once daily)
[12] = LR-C + MR-C (400 mg at 12-h intervals, then 400 mg twice daily)
[13] = 3 days after last dose, LR-A + MR-A
[14] = 3 days after last dose, LR-B + MR-A
[15] = 3 days after last dose, LR-B + MR-B
[16] = 3 days after last dose, LR-C + MR-B
[17] = 3 days after last dose, LR-C + MR-C
[18] = ≤ 7 days after last dose, LR-A + MR-A
[19] = ≤ 7 days after last dose, LR-B + MR-A
[20] = ≤ 7 days after last dose, LR-B + MR-B
[21] = ≤ 7 days after last dose, LR-C + MR-B
[22] = ≤ 7 days after last dose, LR-C + MR-C

Teicoplanin
TDM Withdraw 8-14d (teicoplanin concentration) [1, 5]: 5.5[3.8,7.6] mg/L
TDM Withdraw 8-14d (teicoplanin concentration) [1, 6]: 5.0[3.4,6.6] mg/L
TDM Withdraw 8-14d (teicoplanin concentration) [1, 7]: 0[0,2.5] mg/L
TDM Withdraw 8-14d (teicoplanin concentration) ([1]; all patients (N = 204)): 5.3[3.3,7.0] mg/L
patients with TDM 10–20 mg/L Withdraw 8-14d, N (%) [1, 8]: 8(16.0)
patients with TDM < 10 mg/L Withdraw 8-14d, N (%) [1, 8]: 42(84.0)
patients with TDM > 20 mg/L Withdraw 8-14d, N (%) [1, 8]: 0
patients with TDM 10–20 mg/L Withdraw 8-14d, N (%) [1, 9]: 7(14.6)
patients with TDM < 10 mg/L Withdraw 8-14d, N (%) [1, 9]: 40(83.3)
patients with TDM > 20 mg/L Withdraw 8-14d, N (%) [1, 9]: 1(2.1)
patients with TDM 10–20 mg/L Withdraw 8-14d, N (%) [1, 10]: 0
patients with TDM < 10 mg/L Withdraw 8-14d, N (%) [1, 10]: 4(100)
patients with TDM > 20 mg/L Withdraw 8-14d, N (%) [1, 10]: 0
patients having concentrations of 10–20 mg/L, TDMw8-14d ([1]; 8–14 days after last dose, all patients, 15 patients): 14.6%
patients having concentrations exceeding 20 mg/L, TDMw8-14d ([1]; 8–14 days after last dose, all patients, one patient): 1.0%
patients in whom the target concentration (≥ 10 mg/L) was achieved after withdrawal ([1]; 8–14 days after withdrawal, all patients): 15.6%
TDM Withdraw 3d (teicoplanin concentration) [1, 5]: 11.1[8.2,16.5] mg/L
TDM Withdraw 3d (teicoplanin concentration) [1, 6]: 9.6[7.2,13.8] mg/L
TDM Withdraw 3d (teicoplanin concentration) [1, 11]: 16.3[9.4,20.2] mg/L
TDM Withdraw 3d (teicoplanin concentration) [1, 7]: 8.4[5.3,11.7] mg/L
TDM Withdraw 3d (teicoplanin concentration) [1, 12]: 12.4[7.9,15.6] mg/L
TDM Withdraw 3d (teicoplanin concentration) ([1]; all patients (N = 204)): 10.6[7.9,15.6] mg/L
patients with TDM 10–20 mg/L Withdraw 3d, N (%) [1, 13]: 7(53.8)
patients with TDM < 10 mg/L Withdraw 3d, N (%) [1, 13]: 5(38.5)
patients with TDM > 20 mg/L Withdraw 3d, N (%) [1, 13]: 1(7.7)
patients with TDM 10–20 mg/L Withdraw 3d, N (%) [1, 14]: 6(42.9)
patients with TDM < 10 mg/L Withdraw 3d, N (%) [1, 14]: 7(50.0)
patients with TDM > 20 mg/L Withdraw 3d, N (%) [1, 14]: 1(7.1)
patients with TDM 10–20 mg/L Withdraw 3d, N (%) [1, 15]: 3(60)
patients with TDM < 10 mg/L Withdraw 3d, N (%) [1, 15]: 1(20)
patients with TDM > 20 mg/L Withdraw 3d, N (%) [1, 15]: 1(20)
patients with TDM 10–20 mg/L Withdraw 3d, N (%) [1, 16]: 2(25.0)
patients with TDM < 10 mg/L Withdraw 3d, N (%) [1, 16]: 6(75.0)
patients with TDM > 20 mg/L Withdraw 3d, N (%) [1, 16]: 0
patients with TDM 10–20 mg/L Withdraw 3d, N (%) [1, 17]: 4(44.4)
patients with TDM < 10 mg/L Withdraw 3d, N (%) [1, 17]: 4(44.4)
patients with TDM > 20 mg/L Withdraw 3d, N (%) [1, 17]: 1(11.2)
patients having concentrations of 10–20 mg/L, TDMw3d ([1]; 3 days after last dose, all patients, 22 patients): 44.9%
patients having concentrations exceeding 20 mg/L, TDMw3d ([1]; 3 days after last dose, all patients, four patients): 8.2%
patients in whom the target concentration (≥ 10 mg/L) was achieved after withdrawal ([1]; 3 days after withdrawal, all patients): 53.1%
TDM Withdraw ≤ 7d (teicoplanin concentration) [1, 5]: 7.9[5.8,11.4] mg/L
TDM Withdraw ≤ 7d (teicoplanin concentration) [1, 6]: 7.2[5.6,12.0] mg/L
TDM Withdraw ≤ 7d (teicoplanin concentration) [1, 11]: 12.3[7.7,17.0] mg/L
TDM Withdraw ≤ 7d (teicoplanin concentration) [1, 7]: 6.3[3.4,9.4] mg/L
TDM Withdraw ≤ 7d (teicoplanin concentration) [1, 12]: 7.5[3.2,15.6] mg/L
TDM Withdraw ≤ 7d (teicoplanin concentration) ([1]; all patients (N = 204)): 7.4[5.7,12.0] mg/L
patients with TDM 10–20 mg/L Withdraw ≤ 7d, N (%) [1, 18]: 13(28.3)
patients with TDM < 10 mg/L Withdraw ≤ 7d, N (%) [1, 18]: 30(65.2)
patients with TDM > 20 mg/L Withdraw ≤ 7d, N (%) [1, 18]: 3(6.5)
patients with TDM 10–20 mg/L Withdraw ≤ 7d, N (%) [1, 19]: 14(29.8)
patients with TDM < 10 mg/L Withdraw ≤ 7d, N (%) [1, 19]: 31(66.0)
patients with TDM > 20 mg/L Withdraw ≤ 7d, N (%) [1, 19]: 2(4.2)
patients with TDM 10–20 mg/L Withdraw ≤ 7d, N (%) [1, 20]: 2(40)
patients with TDM < 10 mg/L Withdraw ≤ 7d, N (%) [1, 20]: 2(40)
patients with TDM > 20 mg/L Withdraw ≤ 7d, N (%) [1, 20]: 1(20)
patients with TDM 10–20 mg/L Withdraw ≤ 7d, N (%) [1, 21]: 2(18.2)
patients with TDM < 10 mg/L Withdraw ≤ 7d, N (%) [1, 21]: 9(81.8)
patients with TDM > 20 mg/L Withdraw ≤ 7d, N (%) [1, 21]: 0
patients with TDM 10–20 mg/L Withdraw ≤ 7d, N (%) [1, 22]: 2(22.2)
patients with TDM < 10 mg/L Withdraw ≤ 7d, N (%) [1, 22]: 6(66.7)
patients with TDM > 20 mg/L Withdraw ≤ 7d, N (%) [1, 22]: 1(11.1)
patients having concentrations of 10–20 mg/L, TDMw≤7d ([1]; ≤ 7 days after last dose, all patients, 33 patients): 28.0%
patients having concentrations exceeding 20 mg/L, TDMw≤7d ([1]; ≤ 7 days after last dose, all patients, seven patients): 5.9%
patients in whom the target concentration (≥ 10 mg/L) was achieved after withdrawal ([1]; ≤ 7 days after withdrawal, all patients): 33.9%
TDM Withdraw ≥ 15d (teicoplanin concentration) [1, 5]: 4.54[0,7.3] mg/L
TDM Withdraw ≥ 15d (teicoplanin concentration) [1, 6]: 4.1[0,7.0] mg/L
TDM Withdraw ≥ 15d (teicoplanin concentration) [1, 7]: 0[0,0] mg/L
TDM Withdraw ≥ 15d (teicoplanin concentration) [1, 12]: 2.1[0,2.8] mg/L
TDM Withdraw ≥ 15d (teicoplanin concentration) ([1]; all patients (N = 204)): 3.5[0,6.4] mg/L
patients with TDM 10–20 mg/L Withdraw ≥ 15d, N (%) ([1]; LR-A + MR-A): 1(2.4)
patients with TDM < 10 mg/L Withdraw ≥ 15d, N (%) ([1]; LR-A + MR-A): 41(97.6)
patients with TDM > 20 mg/L Withdraw ≥ 15d, N (%) ([1]; LR-A + MR-A): 0
patients with TDM 10–20 mg/L Withdraw ≥ 15d, N (%) ([1]; LR-B + MR-A): 4(10.5)
patients with TDM < 10 mg/L Withdraw ≥ 15d, N (%) ([1]; LR-B + MR-A): 34(89.5)
patients with TDM > 20 mg/L Withdraw ≥ 15d, N (%) ([1]; LR-B + MR-A): 0
patients with TDM 10–20 mg/L Withdraw ≥ 15d, N (%) ([1]; LR-C + MR-B): 0
patients with TDM < 10 mg/L Withdraw ≥ 15d, N (%) ([1]; LR-C + MR-B): 5(100)
patients with TDM > 20 mg/L Withdraw ≥ 15d, N (%) ([1]; LR-C + MR-B): 0
patients with TDM 10–20 mg/L Withdraw ≥ 15d, N (%) ([1]; LR-C + MR-C): 0
patients with TDM < 10 mg/L Withdraw ≥ 15d, N (%) ([1]; LR-C + MR-C): 5(100)
patients with TDM > 20 mg/L Withdraw ≥ 15d, N (%) ([1]; LR-C + MR-C): 0
patients in whom the target concentration (≥ 10 mg/L) was achieved after withdrawal ([1]; ≥ 15 days after withdrawal, all patients): 5.5%
patients in whom teicoplanin remained detectable ([1]; ≥ 15 days after withdrawal, lower limit of quantification 1.0 mg/L): two-thirds
incidence of acute kidney injury (AKI) / nephrotoxicity ([2]; TDMa < 10 mg/L (5/52)): 9.6%
incidence of acute kidney injury (AKI) / nephrotoxicity ([2]; TDMa = 10–20 mg/L (6/50)): 12.0%
incidence of acute kidney injury (AKI) / nephrotoxicity ([2]; TDMa = 20–40 mg/L (4/18)): 22.2%
incidence of acute kidney injury (AKI) / nephrotoxicity ([2]; all evaluable patients (15/120), serum creatinine increase > 50% from baseline): 12.5%
incidence of hepatotoxicity ([3]; TDMa < 10 mg/L (2/65)): 3.1%
incidence of hepatotoxicity ([3]; TDMa = 10–20 mg/L (3/57)): 5.3%
incidence of hepatotoxicity ([3]; TDMa = 20–40 mg/L (1/26)): 3.8%
incidence of hepatotoxicity ([3]; all evaluable patients (6/148), ALT or AST more than three times the upper limit of normal): 4.1%
incidence of thrombocytopenia ([4]; TDMa < 10 mg/L (16/49)): 32.7%
incidence of thrombocytopenia ([4]; TDMa = 10–20 mg/L (12/42)): 28.6%
incidence of thrombocytopenia ([4]; TDMa = 20–40 mg/L (7/20)): 35.0%
incidence of thrombocytopenia ([4]; all evaluable patients (35/111), platelet count decrease > 30% from baseline): 31.5%
